This note sets out measurements from paper PMC3305890, “Synthesis and pharmacological characterization of potent, selective, and orally bioavailable isoindoline class dipeptidyl peptidase IV inhibitors” (Organic and Medicinal Chemistry Letters, 2011).

Series [1] can be described thus: Metabolic stability in rat liver microsomes. Particulars: 5 μM. It counts as in vitro ADME. As to the method:
(§1) The incubation mixture containing 0.25 mg of rat or human liver microsomes was preincubated with an NADPH-generating system for 5 min at 37°C. The reaction was started by the addition of 5 μL of a DMSO solution containing the test compound (5 μM). At t = 0 and at two additional time points between 0 and 30 min, aliquots (100 μL) were removed and added to termination mixtures (CH3CN). Proteins were sedimented by centrifugation and an aliquot of the supernatant was analyzed by LC/MS/MS.
(§2) In determinations of the in vitrot1/2, the analyte/ISTD peak area ratio was converted to percentage of drug remaining by assigning a value of 100% to the peak area ratio at t = 0. The slope of the regression line fitted to the log (percentage remaining) versus incubation time relationship (-k) was used in the conversion of raw data to the in vitrot1/2 value. In vitro CLint was calculated using the following formula.
(§3) CLint=0.693/Invitro t1/2×mL incubation/mg microsomes×45 mg microsomes/mg liver×[…] (b.w.)
For orientation: Liver microsomes are a subcellular fraction often used to study metabolism.

The nature of series [2]: Metabolic stability in human liver microsomes. Conditions: read-out: CL'int Human (converted). It counts as in vitro ADME. As to the method: as §1, §2, §3
The subject of another series is CYP1A. Nature of the series: CYP1A enzyme induction in rat hepatocytes (7-ethoxyresorufin O-dealkylation). Conditions: rat hepatocytes, 1, 10, 50 μM, 2 days. In kind it is in vitro ADME. The method, then:
(§4) Enzyme induction was evaluated as follows: Hepatocytes isolated from male SD rats were maintained in culture for 1 day before treatment with the test compound or P-450 inducers. The cells were treated with the test compound (1, 10, 50 μM), β-naphthoflavone (10 μM, CYP1A inducer), phenobarbital (50 μM, CYP2B inducer), dexamethasone (10 μM, CYP3A inducer), or vehicle (0.1% DMSO final volume; used as negative control) for 2 days.
(§5) Induction of CYP1A, CYP2B, and CYP3A enzymes was determined based on measurements of 7-ethoxyresorufin O-dealkylation, 7-pentoxyresorufin O-dealkylation, and testosterone 6β-hydroxylation, respectively. Assays were started by the addition of Krebs-Henseleit buffer containing 8 μM 7-ethoxyresorufin, 10 μM 7-pentoxyresorufin, or 250 μM testosterone at a volume of 100 μL per well. After incubation at 37°C for 30 min, aliquots were removed and analyzed by fluorometry (an excitation wavelength of 538 nm and an emission wavelength of 590 nm) or LC/MS/MS to determine the quantities of metabolites formed. Any test compound causing a dose-dependent change equal to or greater than 10% of the positive control (see formula below) was considered an enzyme inducer.
(§6) % positive control=(activity of test - compound treated cells - activity of negative control)/(activity of positive control - activity of negative control)×100

The next series concerns CYP2B. Nature of the series: CYP2B enzyme induction in rat hepatocytes (7-pentoxyresorufin O-dealkylation). In kind it is in vitro ADME. Conditions: rat hepatocytes, 1, 10, 50 μM, 2 days. The method, then:
as §4, §5, §6

The subject of another series is CYP3A. The experiment in a line: CYP3A enzyme induction in rat hepatocytes (testosterone 6β-hydroxylation). It counts as in vitro ADME. Particulars: rat hepatocytes, 1, 10, 50 μM, 2 days. As to the method: as §4, §5, §6
Another series deals with Human DPP-9 (Homo sapiens, UniProt Q86TI2). The experiment in a line: In vitro assay for inhibition of DPP-9.
Chain of Human DPP-9 (Q86TI2 whole entry): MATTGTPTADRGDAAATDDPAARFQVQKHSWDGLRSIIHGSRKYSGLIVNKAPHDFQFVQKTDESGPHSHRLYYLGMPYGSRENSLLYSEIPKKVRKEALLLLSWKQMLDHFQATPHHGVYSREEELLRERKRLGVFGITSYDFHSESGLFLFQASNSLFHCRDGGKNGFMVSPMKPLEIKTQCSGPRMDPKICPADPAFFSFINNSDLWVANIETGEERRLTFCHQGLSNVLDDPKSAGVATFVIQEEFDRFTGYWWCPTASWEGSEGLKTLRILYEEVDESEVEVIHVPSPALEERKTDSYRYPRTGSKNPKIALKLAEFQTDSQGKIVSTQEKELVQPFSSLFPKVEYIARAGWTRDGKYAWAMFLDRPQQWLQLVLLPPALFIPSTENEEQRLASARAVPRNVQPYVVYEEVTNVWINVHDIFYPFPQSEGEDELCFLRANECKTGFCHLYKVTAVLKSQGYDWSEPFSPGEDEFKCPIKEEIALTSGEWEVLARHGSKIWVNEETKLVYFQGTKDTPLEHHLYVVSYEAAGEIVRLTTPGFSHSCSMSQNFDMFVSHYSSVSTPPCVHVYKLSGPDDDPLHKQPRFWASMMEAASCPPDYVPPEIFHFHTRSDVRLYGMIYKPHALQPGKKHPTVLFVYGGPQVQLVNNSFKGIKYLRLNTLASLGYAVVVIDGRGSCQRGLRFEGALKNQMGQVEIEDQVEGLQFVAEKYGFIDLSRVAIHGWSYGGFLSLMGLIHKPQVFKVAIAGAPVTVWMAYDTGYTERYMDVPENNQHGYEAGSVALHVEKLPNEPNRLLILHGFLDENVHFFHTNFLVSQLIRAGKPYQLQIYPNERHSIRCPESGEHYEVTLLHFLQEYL
The next series deals with Human DPP-8 (Homo sapiens, UniProt Q6V1X1). The experiment in a line: In vitro assay for inhibition of DPP-8.
Chain of Human DPP-8 (Q6V1X1 whole entry): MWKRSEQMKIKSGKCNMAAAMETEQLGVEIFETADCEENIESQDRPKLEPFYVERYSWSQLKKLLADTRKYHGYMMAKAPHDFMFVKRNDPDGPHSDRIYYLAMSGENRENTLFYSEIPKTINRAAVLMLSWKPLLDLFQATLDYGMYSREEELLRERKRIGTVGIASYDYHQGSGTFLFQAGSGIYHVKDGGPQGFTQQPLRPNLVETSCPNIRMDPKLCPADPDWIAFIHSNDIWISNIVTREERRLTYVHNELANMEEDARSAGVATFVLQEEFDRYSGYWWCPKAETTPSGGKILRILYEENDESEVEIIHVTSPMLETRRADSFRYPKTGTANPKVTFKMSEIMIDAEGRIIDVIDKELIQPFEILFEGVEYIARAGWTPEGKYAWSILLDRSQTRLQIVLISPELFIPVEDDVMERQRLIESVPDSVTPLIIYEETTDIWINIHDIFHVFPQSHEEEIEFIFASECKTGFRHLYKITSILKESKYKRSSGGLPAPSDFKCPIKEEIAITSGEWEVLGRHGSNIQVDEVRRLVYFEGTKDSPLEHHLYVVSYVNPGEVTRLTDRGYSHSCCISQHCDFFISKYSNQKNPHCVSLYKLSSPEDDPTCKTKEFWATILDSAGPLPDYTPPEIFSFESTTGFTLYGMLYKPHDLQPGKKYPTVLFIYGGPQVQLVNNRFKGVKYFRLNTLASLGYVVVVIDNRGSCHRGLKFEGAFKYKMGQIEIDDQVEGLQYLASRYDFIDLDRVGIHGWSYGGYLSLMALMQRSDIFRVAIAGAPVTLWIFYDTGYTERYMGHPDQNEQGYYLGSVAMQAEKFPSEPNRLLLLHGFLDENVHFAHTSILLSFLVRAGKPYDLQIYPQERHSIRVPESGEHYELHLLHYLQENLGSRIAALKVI
The target in a further series is Human recombinant DPP-IV (Homo sapiens, UniProt P27487). The experiment in a line: In vitro assay for DPP-IV inhibition (H-Gly-Pro-AMC fluorescence).
Chain of Human recombinant DPP-IV (P27487 whole entry): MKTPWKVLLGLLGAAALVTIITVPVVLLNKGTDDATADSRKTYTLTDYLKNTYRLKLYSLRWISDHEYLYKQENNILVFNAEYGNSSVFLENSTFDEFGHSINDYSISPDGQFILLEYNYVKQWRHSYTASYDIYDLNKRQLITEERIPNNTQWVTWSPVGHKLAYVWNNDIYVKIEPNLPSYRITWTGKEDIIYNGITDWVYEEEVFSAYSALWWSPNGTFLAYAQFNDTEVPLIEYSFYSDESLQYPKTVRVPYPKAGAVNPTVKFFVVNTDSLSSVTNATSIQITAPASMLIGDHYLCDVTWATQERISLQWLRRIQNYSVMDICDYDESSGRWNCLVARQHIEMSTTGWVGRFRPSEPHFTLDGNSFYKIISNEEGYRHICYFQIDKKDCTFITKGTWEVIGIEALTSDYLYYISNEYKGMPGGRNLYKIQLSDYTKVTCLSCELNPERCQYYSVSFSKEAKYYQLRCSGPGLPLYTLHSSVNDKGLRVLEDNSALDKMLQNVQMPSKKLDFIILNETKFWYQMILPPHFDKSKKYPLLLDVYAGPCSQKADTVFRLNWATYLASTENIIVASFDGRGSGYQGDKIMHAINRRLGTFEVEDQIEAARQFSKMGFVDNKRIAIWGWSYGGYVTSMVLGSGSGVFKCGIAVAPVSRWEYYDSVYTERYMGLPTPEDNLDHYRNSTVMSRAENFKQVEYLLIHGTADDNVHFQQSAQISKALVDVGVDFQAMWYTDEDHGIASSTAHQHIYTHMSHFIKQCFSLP

Description for Human DPP-8: (§7) Thus, isoindolines were synthesized as shown in Figure 1 and evaluated in vitro for their ability to inhibit human recombinant DPP-IV and were also screened for their selectivity over DPP-8/9 by a fluorescence assay using glycyl-proline 7-amino-4-methylcoumarin (H-Gly-Pro-AMC).
(§8) Human DPP-8 and DPP-9 were expressed in baculovirus-infected Sf9 insect cells and purified using His-tagged protein purification resins. Inhibition of DPP-8 and -9 activities was determined as described above. 10 μL of appropriately diluted aqueous solutions of the test compounds was added to 96-well microtiter plates, followed by the addition of 50 μL of 1.0 mM H-Gly-Pro-AMC in buffer solution (50 mM HEPES, 0.1 mg/mL BSA, pH 8.0). The reaction was initiated by the addition of 40 μL of the enzyme solution diluted in the assay buffer.
Description for Human DPP-9: as §7, §8
Description for Human recombinant DPP-IV: Inhibition of DPP-IV activity was determined by measuring the rate of hydrolysis of a surrogate substrate, H-Gly-Pro-7-amino-4-methylcoumarin (H-Gly-Pro-AMC). Human recombinant DPP-IV was purchased from R&D Systems, Minneapolis, MN. 10 μL of appropriately diluted solutions of the test compounds in water was added to 96-well microtiter plates, followed by the addition of 40 μL of DPP-IV diluted in assay buffer (25 mM HEPES, 140 mM NaC1, 0.1 mg/mL BSA, pH 7.8). After a 30-min preincubation at room temperature, the reaction was initiated by the addition of 50 μL of the assay buffer containing 0.2 mM H-Gly-Pro-AMC.

One may read the IC50 as the concentration that inhibits the measured activity by half. Consider `CC(C)(CC(=O)N1Cc2ccccc2C1)NCC(=O)N1CCC[C@H]1C#N` [Compound 4a, (S)-1-(2-(4-(Isoindolin-2-yl)-2-methyl-4-oxobutan-2-ylamino)acetyl)pyrrolidine-2-carbonitrile], for which the “CL'int Rat” value in series [1] was found to be 1.3 L/h/kg. Moreover, in series [2], the CLint scaled at 5 μM was 3.33 mL/min/kg. The “Enzyme induction (rat) CYP1A” value in the series on CYP1A is given as “+ (Any test compound causing a dose-dependent change equal to or greater than 10% of the positive control (see formula below) was considered an enzyme inducer)”. Moreover, in the series on CYP2B, the “Enzyme induction (rat) CYP2B” value is “+ (Any test compound causing a dose-dependent change equal to or greater than 10% of the positive control (see formula below) was considered an enzyme inducer)”. Further, in the series with CYP3A, the “Enzyme induction (rat) CYP3A” value is reported as “+ (Any test compound causing a dose-dependent change equal to or greater than 10% of the positive control (see formula below) was considered an enzyme inducer)”. The IC50 on Human DPP-9 was more than 100 µM.

Turning to `CC(C)(CC(=O)N1Cc2ccc(F)cc2C1)NCC(=O)N1CCC[C@H]1C#N` [Compound 4c, (S)-1-(2-(4-(5-Fluoroisoindolin-2-yl)-2-methyl-4-oxobutan-2-ylamino)acetyl)pyrrolidine-2-carbonitrile], the “CL'int Rat” value in series [1] came out at 2.6 L/h/kg. In addition, the CLint scaled at 5 μM in series [2] was 80 mL/min/kg. Also, in the series with CYP2B, the “Enzyme induction (rat) CYP2B” value was “+ (Any test compound causing a dose-dependent change equal to or greater than 10% of the positive control (see formula below) was considered an enzyme inducer)”. In addition, the IC50 against Human DPP-8 was more than 100 µM; on Human DPP-9, more than 100 µM; on Human recombinant DPP-IV, 1.9 nM.

Turning to `CC(C)(CC(=O)N1Cc2ccc(Br)cc2C1)NCC(=O)N1CCC[C@H]1C#N` [Compound 4d, (S)-1-(2-(4-(5-Bromoisoindolin-2-yl)-2-methyl-4-oxobutan-2-ylamino)acetyl)pyrrolidine-2-carbonitrile], in the series on CYP2B, the “Enzyme induction (rat) CYP2B” value is given as “+ (Any test compound causing a dose-dependent change equal to or greater than 10% of the positive control (see formula below) was considered an enzyme inducer)”. For the same compound, the IC50 is 36 µM against Human DPP-8, more than 100 µM against Human DPP-9 and 3 nM on Human recombinant DPP-IV.

In the case of `CC(C)(CC(=O)N1Cc2ccc(Cl)cc2C1)NCC(=O)N1CCC[C@H]1C#N` [Compound 4e, (S)-1-(2-(4-(5-Chloroisoindolin-2-yl)-2-methyl-4-oxobutan-2-ylamino)acetyl)pyrrolidine-2-carbonitrile], the “Enzyme induction (rat) CYP2B” value in the series on CYP2B is “+ (Any test compound causing a dose-dependent change equal to or greater than 10% of the positive control (see formula below) was considered an enzyme inducer)”. Besides, the IC50 is 44 µM against Human DPP-8, more than 100 µM on Human DPP-9 and 4.8 nM at Human recombinant DPP-IV.

Consider `CC(C)(CC(=O)N1Cc2ccc(C(F)(F)F)cc2C1)NCC(=O)N1CCC[C@H]1C#N` [Compound 4f, (S)-1-(2-(2-Methyl-4-oxo-4-(5-(trifluoromethyl)isoindolin-2-yl)butan-2-ylamino)acetyl)pyrrolidine-2-carbonitrile], for which the “Enzyme induction (rat) CYP1A” value in the series on CYP1A was “+ (Any test compound causing a dose-dependent change equal to or greater than 10% of the positive control (see formula below) was considered an enzyme inducer)”. Further, in the series on CYP2B, the “Enzyme induction (rat) CYP2B” value is “+ (Any test compound causing a dose-dependent change equal to or greater than 10% of the positive control (see formula below) was considered an enzyme inducer)”. In addition, the IC50 was more than 100 µM against Human DPP-8, more than 100 µM at Human DPP-9 and 5.4 nM on Human recombinant DPP-IV.

As to `CC(C)(CC(=O)N1Cc2cccc(F)c2C1)NCC(=O)N1CCC[C@H]1C#N` [Compound 4g, (S)-1-(2-(4-(4-Fluoroisoindolin-2-yl)-2-methyl-4-oxobutan-2-ylamino)acetyl)pyrrolidine-2-carbonitrile], the “Enzyme induction (rat) CYP2B” value in the series with CYP2B is recorded as “+ (Any test compound causing a dose-dependent change equal to or greater than 10% of the positive control (see formula below) was considered an enzyme inducer)”. The IC50 at Human DPP-8 is more than 100 µM; at Human DPP-9, more than 100 µM; at Human recombinant DPP-IV, 2.6 nM.

As for `Cc1cccc2c1CN(C(=O)CC(C)(C)NCC(=O)N1CCC[C@H]1C#N)C2` [Compound 4h, (S)-1-(2-(2-Methyl-4-(4-methylisoindolin-2-yl)-4-oxobutan-2-ylamino)acetyl)pyrrolidine-2-carbonitrile], in the series on CYP2B, the “Enzyme induction (rat) CYP2B” value was “+ (Any test compound causing a dose-dependent change equal to or greater than 10% of the positive control (see formula below) was considered an enzyme inducer)”. Moreover, the IC50 against Human DPP-8 is more than 100 µM; against Human DPP-9, more than 100 µM; at Human recombinant DPP-IV, 4 nM.

Take `CC(C)(CC(=O)N1Cc2c(Cl)ccc(Cl)c2C1)NCC(=O)N1CCC[C@H]1C#N` [Compound 4i, (S)-1-(2-(4-(4,7-Dichloroisoindolin-2-yl)-2-methyl-4-oxobutan-2-ylamino)acetyl)pyrrolidine-2-carbonitrile]: the “Enzyme induction (rat) CYP1A” value in the series with CYP1A is given as “+ (Any test compound causing a dose-dependent change equal to or greater than 10% of the positive control (see formula below) was considered an enzyme inducer)”. In addition, the values for the IC50 against Human DPP-8, on Human DPP-9 and at Human recombinant DPP-IV were more than 100 µM, more than 100 µM and 2.6 nM, respectively.

With `CC(C)(CC(=O)N1Cc2cc(Cl)c(Cl)cc2C1)NCC(=O)N1CCC[C@H]1C#N` [Compound 4j, (S)-1-(2-(4-(5,6-Dichloroisoindolin-2-yl)-2-methyl-4-oxobutan-2-ylamino)acetyl)pyrrolidine-2-carbonitrile], in the series with CYP1A, the “Enzyme induction (rat) CYP1A” value is “+ (Any test compound causing a dose-dependent change equal to or greater than 10% of the positive control (see formula below) was considered an enzyme inducer)”. Further, the “Enzyme induction (rat) CYP2B” value in the series with CYP2B is on record as “+ (Any test compound causing a dose-dependent change equal to or greater than 10% of the positive control (see formula below) was considered an enzyme inducer)”. Also, the values for the IC50 on Human DPP-8, on Human DPP-9 and at Human recombinant DPP-IV were more than 100 µM, 74 µM and 22 nM, respectively.

With `COc1cc(C)cc2c1CN(C(=O)CC(C)(C)NCC(=O)N1CCC[C@H]1C#N)C2` [Compound 4k, (S)-1-(2-(4-(4-Methoxy-6-methylisoindolin-2-yl)-2-methyl-4-oxobutan-2-ylamino)acetyl)pyrrolidine-2-carbonitrile], the “Enzyme induction (rat) CYP2B” value with CYP2B is “+ (Any test compound causing a dose-dependent change equal to or greater than 10% of the positive control (see formula below) was considered an enzyme inducer)”. Moreover, the IC50 at Human DPP-8 is more than 100 µM; against Human DPP-9, more than 100 µM; on Human recombinant DPP-IV, 16 nM.
